Tests used:
Format in all cases: biochemical
GABA-AT = assay: Time-dependent inhibition of GABA-AT; conditions: conclusion statement
Excerpt: Time-dependent inhibition of both GABA-AT and OAT were explored with racemic 6 (FIGS. 4 and 5). […] Racemic Vince lactam was used for the aforementioned biological assays.

hOAT [1] = biological target: T1, hOAT (Homo sapiens, UniProt P04181); assay: Turnover number and partition ratio by titrating hOAT with varying equivalents of inactivator
T1 sequence (P04181 36-439 limits assumed): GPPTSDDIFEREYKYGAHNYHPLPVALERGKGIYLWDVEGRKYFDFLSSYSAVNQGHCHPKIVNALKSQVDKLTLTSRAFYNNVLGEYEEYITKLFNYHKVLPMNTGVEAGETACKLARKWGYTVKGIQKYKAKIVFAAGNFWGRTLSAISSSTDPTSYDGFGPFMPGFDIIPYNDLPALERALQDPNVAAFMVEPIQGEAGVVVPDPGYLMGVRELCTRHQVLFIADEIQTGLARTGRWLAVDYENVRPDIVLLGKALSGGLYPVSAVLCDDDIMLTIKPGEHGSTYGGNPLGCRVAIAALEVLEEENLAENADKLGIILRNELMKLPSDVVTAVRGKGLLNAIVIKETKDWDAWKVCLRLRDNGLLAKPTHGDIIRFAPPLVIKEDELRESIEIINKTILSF
Protocol: The turnover number and partition ratio of 6 were determined by titrating a known amount of hOAT with varying equivalents of inactivator (FIG. 12). The linear relationship of the remaining enzymatic activity was extrapolated to yield the number of equivalents of 6 required to inactivate the enzyme completely. From this we determined the turnover number of 6 to be 8.5 equivalent and the partition ratio to be 7.5. Based on our understanding of the mechanism, we believe that the turnover number may indicate that the second deprotonation is slow, which would allow the ketimine time to hydrolyze in a higher percentage than if the second deprotonation occurred rapidly.

hOAT [2] = biological target: T1, hOAT; assay: Time-dependent inactivation of hOAT; conditions: enantiopure compound
hOAT [3] = biological target: T1, hOAT; assay: Dialysis of hOAT inactivated by compound; conditions: hOAT dialyzed at 5° C. for 72 hours
Protocol: Samples of hOAT that had been inactivated by varying equivalents of 6 were dialyzed at 5° C. for 72 hours. At 4-, 12-, 24-, 48-, and 72-hour time points, aliquots were taken and the activity of the hOAT was measured.

partition ratio (hOAT [1]): 7.5
turnover number (hOAT [1]; extrapolated from linear relationship of remaining enzymatic activity): 8.5 equivalent
kinact/KI (hOAT [2]): 2.6 M⁻¹ s⁻¹
enzymatic activity recovered after dialysis (hOAT [3]): No enzymatic activity was recovered
SMILES: N[C@@H]1CC2C(F)(F)[C@@]2(C(=O)O)C1 (stereo partly drawn) [compound 6, (1S,3R)-3-amino-6,6-difluorobicyclo[3.1.0]hexane-1-carboxylic acid]
activity in GABA-AT (GABA-AT): modest activity

From patent US20260265177A1, “BICYCLIC COMPOUNDS AS INACTIVATORS OF OAT AND GABA-AT” (Northwestern University, priority 2023, published 2026)
